In patent publication US5508419A, “Substituted triazoles as angiotensin II inhibitors” (Ortho Pharmaceutical Corporation, priority 1994, dated 1996):

How the values were obtained:
[1] = biological target: T1, angiotensin II receptor (angiotensin II-induced vasoconstriction in in vitro aortic rings) (Oryctolagus cuniculus, UniProt P34976); test: Inhibition of Angiotensin II Dose-Response in Rabbit Thoracic Aorta; assay type: cell-based, rabbit (New Zealand white); conditions: for Kb / pA2: rabbit thoracic aorta, negative logarithm of antagonist concentration causing 2-fold shift to the right of agonist potency; for Kb: read-out: pA2 (converted); for inhibition at 10 µM: read-out: % Inhib. @ 10 uM
T1 construct: thoracic aorta gently dissected free from the aortic root to the level of the diaphragm; from tissue; host or cells: rabbit (New Zealand white) thoracic aorta rings
T1 sequence (P34976 1-359): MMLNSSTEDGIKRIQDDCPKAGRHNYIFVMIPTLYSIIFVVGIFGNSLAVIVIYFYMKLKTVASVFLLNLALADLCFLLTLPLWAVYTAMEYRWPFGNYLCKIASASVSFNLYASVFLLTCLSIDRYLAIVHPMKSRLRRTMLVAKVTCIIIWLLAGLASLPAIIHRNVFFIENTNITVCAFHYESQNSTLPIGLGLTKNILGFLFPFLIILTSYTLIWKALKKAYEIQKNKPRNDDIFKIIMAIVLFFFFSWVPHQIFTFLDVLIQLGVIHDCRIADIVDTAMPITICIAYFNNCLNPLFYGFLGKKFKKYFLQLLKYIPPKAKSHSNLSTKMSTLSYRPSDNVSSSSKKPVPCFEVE
From the text: Inhibition of Angiotensin II Dose-Response in Rabbit Thoracic Aorta
Purpose: To identify competitive receptor antagonists of an angiotensin II-activity, 1 activity i.e., angiotensin II-induced vasoconstriction in in vitro aortic rings.
Procedure: 1.8 to 2.3 kg New Zealand white rabbits are sacrificed with an intravenous sodium pentobarbital overdose and the thoracic aorta gently dissected free from the aortic root to the level of the diaphragm, into ice cold Krebs bicarbonate buffer. The aorta is gently freed of clots and adventitia and cleanly cut with a scalpel into 5 mm segments. Each dng is suspended from a Gould isotonic force transducer in a tissue bath containing 15 mL oxygenated Krebs bicarbonate buffer regulated at 37° C. Initial tension is adjusted to 4.0 g and equilibrated over three 20-min wash periods to achieve a baseline tension of 3.0 g. Graded angiotensin II doses are given cumulatively to achieve a maximal contraction. Three 20-min washes are pedormed to remove the initial angiotensin II effect. The test compound is then given at a screening concentration of 1.0×10^-5 M. After observing any effects of the test compound alone, the angiotensin II cumulative dose-response is then repeated in the presence of the test compound.
Analysis: Angiotensin II vasoconstdctor tension in grams is expressed as a percent of maximal contraction for the before and after test compound angiotensin II dose-responses. Angiotensin II ED50 and ED90 is determined from the angiotensin II dose-response curves generated before and after test compound.
Controls: Test compounds are dissolved in DMSO vehicle and DMSO vehicle alone is tested in two rings as a vehicle control in each screening experiment.
pA2 is the negative logarithm of the antagonist concentration that causes a 2-fold shift to the right (i.e. decrease) in the potency of the agonist or the negative logarithm of the antagonist concentration that cuts the potency of the agonist in half.

plasma renin activity = test: Plasma renin activity (PRA, RIA) in salt-depleted rats; assay type: in vivo, rat (Sprague-Dawley); conditions: after DuP-753 treatment of salt-depleted rats, 0.7 before and about 7.4 after salt depletion
angiotensin II receptor = test: Screening Potential Angiotensin II Receptor Antagonists in Salt-Depleted Normotensive Rats (blood pressure); assay type: in vivo, rat (Sprague-Dawley)
Procedure: Method; Male 350-450 g Sprague-Dawley rats are implanted with teflon microcannulae via the middle caudal artery under 20 mg/kg intravenous brevital anesthesia and permitted a 4-7 day surgical recovery period. Throughout recovery and testing animals are individually housed unrestrained in standard rat metabolism cages and receive continuous 0.5 ml/h intra-arterial 0.25N saline infusion through a spring-shielded swivelling tether connected to an infusion/blood pressure recording system to maintain arterial cannula patency. […] […] Three hours after the second furosemide dose, rats are given test compound uniformly suspended in 1% methylcellulose (n=3/dose level) or 1 mL 1% methylcellulose vehicle (n=3) orally by gavage and blood pressure is continuously recorded for 24 h using a Buxco computerized data recording system. Compound-induced changes in blood pressure are compared to concurrent vehicle control blood pressures in order to detect drug effect.
Interpretation: Prior to salt depletion, normotensive rats typically show a plasma renin activity (PRA, ng angiotensin I/mL plasma/h, RIA) of 0.7. After the salt-depletion protocol PRA values taken 3 h after the furosemide dose have risen to about 7.4.
Compounds that decrease blood pressure 10 or more mmHg (MAP) compared to concurrent control after oral dosing are considered active in this test. Maximum possible response is about -35 mmHg. […]

| SMILES | Kb [1] | inhibition at 10 µM [1] | other results |
| --- | --- | --- | --- |
| CCCCc1nc(SCc2ccc(-c3ccccc3C(=O)O)cc2)nn1Cc1ccc(-c2ccccc2C(=O)O)cc1 [Compound 2, Disodium 5-Butyl-1,3-bis-[4-(2'-carboxyphenyl)benzyl]mercapto-1,2,4-triazole] | 3.24 nM | 100% |  |
| CC(C)Cc1nc(SCc2ccc(-c3ccccc3C(=O)O)cc2)nn1Cc1ccc(-c2ccccc2C(=O)O)cc1 [Compound 4, Sodium 5-isobutyl-1,3-bis-[4-(2'-carboxyphenyl)benzyl]mercapto-1,2,4-triazole] | 32.4 nM | 100% |  |
| CCCCCCCc1nc(SCc2ccc(-c3ccccc3C(=O)OC)cc2)nn1Cc1ccc(-c2ccccc2C(=O)OC)cc1 [Compound 9, 5-Heptyl-1,3-bis-[4-(2'-carbomethoxyphenyl)benzyl]mercapto-1,2,4-triazole] |  | 2% |  |
| CCCCCc1nc(SCc2ccc(-c3ccccc3C(=O)OC)cc2)nn1Cc1ccc(-c2ccccc2-c2nn[nH]n2)cc1 [Compound 16, 3-[4-(2'-Carbomethoxyphenyl)benzyl]mercapto-5-pentyl-1-[4-(2'-tetrazolophenyl)benzyl]-1,2,4-triazole hemihydrate] | 10000 nM |  |  |
| CCCCCc1nc(SCc2ccc(-c3ccccc3C(=O)OC)cc2)n(Cc2ccc(-c3ccccc3C(=O)OC)cc2)n1 [Compound 21, 5-Pentyl-2,3-bis-[4-(2'-carbomethoxyphenyl)benzyl]mercapto-1,2,4-triazole] |  | 4% |  |
| CCCCCCCCc1nc(S(=O)(=O)Cc2ccc(-c3ccccc3C(=O)O)cc2)nn1Cc1ccc(-c2ccccc2C(=O)O)cc1 [Compound 38, 1-[(2'-Carboxyphenyl)benzyl]-3-[(2'-carboxyphenyl)benzylsulfonyl]-5-octyl-1,2,4-triazole hydrate] | 813 nM | 87% |  |
| CCCCc1nc(Cl)c(CO)n1Cc1ccc(-c2ccccc2-c2nn[nH]n2)cc1 [DuP-753] |  |  | plasma renin activity (PRA) (plasma renin activity): about 41.4 ng angiotensin I/mL plasma/h; blood pressure change (angiotensin II receptor; normotensive rats that have not been salt-depleted): does not change; blood pressure decrease (mean arterial pressure, MAP) (angiotensin II receptor; salt-depleted rats (furosemide, low sodium diet), typical response): about 35 mmHg |

More lines, main results first:

| Kb [1] | inhibition at 10 µM [1] | SMILES | other results |
| --- | --- | --- | --- |
|  | 100% | CCCCCc1nc(SCc2ccc(-c3ccccc3C(=O)O)cc2)nn1Cc1ccc(-c2ccccc2C(=O)O)cc1 [Compound 6, 5-Pentyl-1,3-bis-[4-(2'-carboxyphenyl)benzyl]mercapto-1,2,4-triazole] | pA2 [1]: 8.39 |
| 11 nM | 100% | CCCCCCc1nc(SCc2ccc(-c3ccccc3C(=O)OC)cc2)nn1Cc1ccc(-c2ccccc2C(=O)OC)cc1 [Compound 8, 5-Hexyl-1,3-bis-[4-(2'-carbomethoxyphenyl)benzyl]mercapto-1,2,4-triazole] |  |
| 186 nM | 97% | CCCCCCCc1nc(SCc2ccc(-c3ccccc3C(=O)O)cc2)nn1Cc1ccc(-c2ccccc2C(=O)O)cc1 [Compound 10, 5-Heptyl-1,3-bis-[4-(2'-carboxyphenyl)benzyl]mercapto-1,2,4-triazole] |  |
|  | 79% | CCCCCc1nc(SCc2ccc(-c3ccccc3C#N)cc2)nn1Cc1ccc(-c2ccccc2C(=O)O)cc1 [Compound 12] |  |
|  | 100% | CCCCCc1nc(SCc2ccc(-c3ccccc3C(=O)O)cc2)n(Cc2ccc(-c3ccccc3C(=O)O)cc2)n1 [Compound 23, 5-Pentyl-2,3-bis-[4-(2'-carboxyphenyl)benzyl]mercapto-1,2,4-triazole] | pA2 [1]: 7.19 |
|  | 1% | CCCCCCCc1nc(SCc2ccc(-c3ccccc3C(=O)OC)cc2)n(Cc2ccc(-c3ccccc3C(=O)OC)cc2)n1 [Compound 25, 5-Heptyl-2,3-bis-[4-(2'-carbomethoxyphenyl)benzyl]mercapto-1,2,4-triazole] |  |
|  | 48% | CCCCCCCc1nc(SCc2ccc(-c3ccccc3C(=O)O)cc2)n(Cc2ccc(-c3ccccc3C(=O)O)cc2)n1 [Compound 26] | pA2 [1]: 5.88 |
| 324 nM | 89% | CCCCCCCc1nc(S(=O)(=O)Cc2ccc(-c3ccccc3C(=O)O)cc2)nn1Cc1ccc(-c2ccccc2C(=O)O)cc1 [Compound 39, 1-[(2'-Carboxyphenyl)benzyl]-3-[(2'-carboxyphenyl)benzylsulfonyl]-5-heptyl-1,2,4-triazole hydrate] |  |
| 8.91 nM | 100% | CCCCCCc1nc(S(=O)(=O)Cc2ccc(-c3ccccc3C(=O)O)cc2)nn1Cc1ccc(-c2ccccc2C(=O)O)cc1 [Compound 40, 1-[(2'-Carboxyphenyl)benzyl]-3-[(2'-carboxyphenyl)benzylsulfonyl]-5-hexyl-1,2,4-triazole 0.5 hydrate] |  |
